{"source": "patent US12550899B2", "about": "“Topramezone derivative and use thereof” (priority 2023, dated 2026)", "assay_type_in_all_cases": "in vivo", "key": {"[1]": {"system": "Digitaria sanguinalis", "assay": "Laboratory rainfastness test (foliar spray, simulated rainfall)", "settings": "for Average fresh weight / Control efficacy: 20 days post-application", "method": "Refer to the “Pesticides guidelines for laboratory bioactivity tests Part 4: Foliar spray application test for herbicide activity, NY/T 1155.4-2006”.\n(§1) The soil used for the test was a mixture of surface 20 cm loam and vermiculite, mixed in a volume ratio of 3:1 to form a culture soil. The test weeds were cultured in a glass greenhouse with a temperature ranging from 25° C. to 35° C. and under natural light.\nA measured quantity of Digitaria sanguinalis seeds were sown in plastic pots with a diameter of 9 cm, and covered with 1-2 mm of soil. The ports were then placed in enamel trays filled with water, and watered by bottom irrigation. After the water seeped to the soil surface, the pots were transferred to the glass greenhouse for standby.\n(§2) Five dosages were set for Compound I, Compound II and the control herbicide Topramezone, which were 3.75, 7.5, 15, 30 and 60 grams of active ingredient per hectare respectively. In addition, a blank control was also prepared.\n(§3) The required amount of the herbicide was accurately measured out and directly added with water, which was diluted to the required dosage by using the serial dilution method for standby.\n(§4) The test was conducted on Digitaria sanguinalis at the two-leaf and one-heart stage, with the stems and leaves both sprayed uniformly. The ASS-4 automatic control spraying system with a fan-shaped nozzle was used indoors for herbicide application. Depending on the nozzle pressure and flow rate, 50 mL of herbicide solution was applied to a spraying area of 1.1 m^2 (which was equivalent to the water consumption of 30 L per mu). The system's operating speed was calibrated. The plastic pots to be treated were arranged evenly on the spraying platform to ensure uniform treatment. The spray pressure was set to 0.35 MPa, and the flow rate of the fan-shaped nozzle was set to 800 mL/min. The spraying was carried out in sequence from the low dosage to the high dosage. Each treatment was repeated four times.\nThe rainfastness test was set as follows: at 0.5 hours, 1.0 hour, 3.0 hours, and 6.0 hours after the application of the herbicide, the weeds that have already been sprayed with the herbicide were subjected to stem and leaf showering with a specific shower equipment simulating rainfall. Weeds that were not subjected to the showering treatment served as the control group.\nThe damage symptoms of the weeds (such as growth inhibition, chlorosis, malformation, etc.) were carefully recorded at 3, 7, 10, and 20 days after herbicide application. A visual comparison of the herbicide effectiveness was made after simulated rainfall at different time intervals. At 20 days post-application, the fresh weight of the aboveground parts of the weeds from each treatment group was measured, and the fresh weight control efficacy was calculated.\nThe treatment results were calculated according to the following formula: weed fresh weight control efficacy (%)=(control fresh weight−treatment fresh weight)/control fresh weight×100. A DPS statistical software was used to conduct regression analysis on the logarithmic values of the herbicide dosage and the probit values of the weed fresh weight control efficacy, and the correlation coefficient, GR50, GR90, and the 95% confidence interval were calculated."}, "[2]": {"system": "Echinochloa crusgalli", "assay": "Laboratory bioactivity efficacy test 2.2 (foliar spray)", "settings": "fresh weight control efficacy 20 days post-application", "method": "(§5) • grassy weeds: Digitaria sanguinalis, Eleusine indica, Echinochloa crusgalli; • Broadleaf weeds: Portulaca oleracea, Abutilon theophrasti medicus. 2.2.2 Test Conditions\nas §1\n(§6) Quantified seeds of Digitaria sanguinalis, Eleusine indica, Echinochloa crusgalli, Portulaca oleracea, and Abutilon theophrasti medicus were sown in plastic pots with a diameter of 9 cm, and covered with 1-2 mm of soil. The ports were then placed in enamel trays filled with water, and watered by bottom irrigation. After the water seeped to the soil surface, the pots were transferred to the glass greenhouse for standby.\nas §2, §3\nas §4, with “grassy weeds” for “Digitaria sanguinalis”, “one-heart stage, Abutilon theophrasti medicus at the 2-true-leaf stage, and Portulaca oleracea at the 3-5-leaf” for “one-heart”, “repeated two to” for “repeated”\n(§7) The herbicide was applied once. After spraying, the pots were air-dried for one day and then placed in the glass greenhouse. Regular watering was conducted to maintain moisture.\n(§8) The damage symptoms of the weeds (such as growth inhibition, chlorosis, malformation, etc.) were carefully recorded at 3, 7, 10, and 20 days after herbicide application. A visual comparison of the herbicide effectiveness was made. At 20 days post-application, the fresh weight of the aboveground parts of the weeds from each treatment group was measured, and the fresh weight control efficacy was calculated.\n(§9) The treatment results were calculated according to the following formula: weed fresh weight control efficacy (%)=(control fresh weight−treatment fresh weight)/control fresh weight×100.\n(§10) A DPS statistical software was used to conduct regression analysis on the logarithmic values of the herbicide dosage and the probit values of the weed fresh weight control efficacy, and the correlation coefficient, GR50, GR90, and the 95% confidence interval were calculated."}, "[3]": {"system": "Portulaca oleracea", "assay": "Laboratory bioactivity efficacy test 2.2 (foliar spray)", "settings": "fresh weight control efficacy 20 days post-application", "method": "as §5, §1, §6, §2, §3\nas §4, with “grassy weeds” for “Digitaria sanguinalis”, “one-heart stage, Abutilon theophrasti medicus at the 2-true-leaf stage, and Portulaca oleracea at the 3-5-leaf” for “one-heart”, “repeated two to” for “repeated”\nas §7, §8, §9, §10"}, "[4]": {"settings": "No spraying (no simulated rainfall), dosage 3.75 g/hectare"}, "[5]": {"settings": "No spraying (no simulated rainfall), dosage 7.5 g/hectare"}, "[6]": {"settings": "No spraying (no simulated rainfall), dosage 15 g/hectare"}, "[7]": {"settings": "No spraying (no simulated rainfall), dosage 30 g/hectare"}, "[8]": {"settings": "No spraying (no simulated rainfall), dosage 60 g/hectare"}, "[9]": {"settings": "Spraying water 0.5 hour after herbicide application, dosage 3.75 g/hectare"}, "[10]": {"settings": "Spraying water 0.5 hour after herbicide application, dosage 7.5 g/hectare"}, "[11]": {"settings": "Spraying water 0.5 hour after herbicide application, dosage 15 g/hectare"}, "[12]": {"settings": "Spraying water 0.5 hour after herbicide application, dosage 30 g/hectare"}, "[13]": {"settings": "Spraying water 0.5 hour after herbicide application, dosage 60 g/hectare"}, "[14]": {"settings": "Spraying water 1.0 hour after herbicide application, dosage 3.75 g/hectare"}, "[15]": {"settings": "Spraying water 1.0 hour after herbicide application, dosage 7.5 g/hectare"}, "[16]": {"settings": "Spraying water 1.0 hour after herbicide application, dosage 15 g/hectare"}, "[17]": {"settings": "Spraying water 1.0 hour after herbicide application, dosage 30 g/hectare"}, "[18]": {"settings": "Spraying water 1.0 hour after herbicide application, dosage 60 g/hectare"}, "[19]": {"settings": "Spraying water 3.0 hour after herbicide application, dosage 3.75 g/hectare"}, "[20]": {"settings": "Spraying water 3.0 hour after herbicide application, dosage 7.5 g/hectare"}, "[21]": {"settings": "Spraying water 3.0 hour after herbicide application, dosage 15 g/hectare"}, "[22]": {"settings": "Spraying water 3.0 hour after herbicide application, dosage 30 g/hectare"}, "[23]": {"settings": "Spraying water 3.0 hour after herbicide application, dosage 60 g/hectare"}, "[24]": {"settings": "Spraying water 6.0 hour after herbicide application, dosage 3.75 g/hectare"}, "[25]": {"settings": "Spraying water 6.0 hour after herbicide application, dosage 7.5 g/hectare"}, "[26]": {"settings": "Spraying water 6.0 hour after herbicide application, dosage 15 g/hectare"}, "[27]": {"settings": "Spraying water 6.0 hour after herbicide application, dosage 30 g/hectare"}, "[28]": {"settings": "Spraying water 6.0 hour after herbicide application, dosage 60 g/hectare"}}, "note": "Entries after “also recorded” stand apart in the source; their conditions may differ."}
{"molecule": "Cc1c(C(=O)c2cnn(C)c2O)ccc(S(C)(=O)=O)c1C1=NOCC1", "note": "[Topramezone]", "values": [{"measurement": "Average fresh weight", "setting": "[1]; [4]", "result": 6.2, "unit": "g"}, {"measurement": "Control efficacy", "setting": "[1]; [4]", "result": 4.6, "unit": "%"}, {"measurement": "Average fresh weight", "setting": "[1]; [5]", "result": 5.0, "unit": "g"}, {"measurement": "Control efficacy", "setting": "[1]; [5]", "result": 23.4, "unit": "%"}, {"measurement": "Average fresh weight", "setting": "[1]; [6]", "result": 3.7, "unit": "g"}, {"measurement": "Control efficacy", "setting": "[1]; [6]", "result": 43.7, "unit": "%"}, {"measurement": "Average fresh weight", "setting": "[1]; [7]", "result": 2.3, "unit": "g"}, {"measurement": "Control efficacy", "setting": "[1]; [7]", "result": 64.8, "unit": "%"}, {"measurement": "Average fresh weight", "setting": "[1]; [8]", "result": 1.2, "unit": "g"}, {"measurement": "Control efficacy", "setting": "[1]; [8]", "result": 82.4, "unit": "%"}, {"measurement": "Average fresh weight", "setting": "[1]; [9]", "result": 6.5, "unit": "g"}, {"measurement": "Control efficacy", "setting": "[1]; [9]", "result": 0.0, "unit": "%"}, {"measurement": "Average fresh weight", "setting": "[1]; [10]", "result": 6.0, "unit": "g"}, {"measurement": "Control efficacy", "setting": "[1]; [10]", "result": 7.7, "unit": "%"}, {"measurement": "Average fresh weight", "setting": "[1]; [11]", "result": 5.9, "unit": "g"}, {"measurement": "Control efficacy", "setting": "[1]; [11]", "result": 10.3, "unit": "%"}, {"measurement": "Average fresh weight", "setting": "[1]; [12]", "result": 5.5, "unit": "g"}, {"measurement": "Control efficacy", "setting": "[1]; [12]", "result": 16.5, "unit": "%"}, {"measurement": "Average fresh weight", "setting": "[1]; [13]", "result": 4.6, "unit": "g"}, {"measurement": "Control efficacy", "setting": "[1]; [13]", "result": 29.1, "unit": "%"}, {"measurement": "Average fresh weight", "setting": "[1]; [14]", "result": 6.4, "unit": "g"}, {"measurement": "Control efficacy", "setting": "[1]; [14]", "result": 2.7, "unit": "%"}, {"measurement": "Average fresh weight", "setting": "[1]; [15]", "result": 6.0, "unit": "g"}, {"measurement": "Control efficacy", "setting": "[1]; [15]", "result": 8.0, "unit": "%"}, {"measurement": "Average fresh weight", "setting": "[1]; [16]", "result": 5.7, "unit": "g"}, {"measurement": "Control efficacy", "setting": "[1]; [16]", "result": 13.4, "unit": "%"}, {"measurement": "Average fresh weight", "setting": "[1]; [17]", "result": 5.3, "unit": "g"}, {"measurement": "Control efficacy", "setting": "[1]; [17]", "result": 19.2, "unit": "%"}, {"measurement": "Average fresh weight", "setting": "[1]; [18]", "result": 4.7, "unit": "g"}, {"measurement": "Control efficacy", "setting": "[1]; [18]", "result": 28.0, "unit": "%"}, {"measurement": "Average fresh weight", "setting": "[1]; [19]", "result": 6.4, "unit": "g"}, {"measurement": "Control efficacy", "setting": "[1]; [19]", "result": 1.5, "unit": "%"}, {"measurement": "Average fresh weight", "setting": "[1]; [20]", "result": 5.8, "unit": "g"}, {"measurement": "Control efficacy", "setting": "[1]; [20]", "result": 10.7, "unit": "%"}, {"measurement": "Average fresh weight", "setting": "[1]; [21]", "result": 5.7, "unit": "g"}, {"measurement": "Control efficacy", "setting": "[1]; [21]", "result": 13.4, "unit": "%"}, {"measurement": "Average fresh weight", "setting": "[1]; [22]", "result": 4.1, "unit": "g"}, {"measurement": "Control efficacy", "setting": "[1]; [22]", "result": 36.8, "unit": "%"}, {"measurement": "Average fresh weight", "setting": "[1]; [23]", "result": 3.3, "unit": "g"}, {"measurement": "Control efficacy", "setting": "[1]; [23]", "result": 50.2, "unit": "%"}, {"measurement": "Average fresh weight", "setting": "[1]; [24]", "result": 6.5, "unit": "g"}, {"measurement": "Control efficacy", "setting": "[1]; [24]", "result": 0.4, "unit": "%"}, {"measurement": "Average fresh weight", "setting": "[1]; [25]", "result": 5.1, "unit": "g"}, {"measurement": "Control efficacy", "setting": "[1]; [25]", "result": 21.8, "unit": "%"}, {"measurement": "Average fresh weight", "setting": "[1]; [26]", "result": 3.5, "unit": "g"}, {"measurement": "Control efficacy", "setting": "[1]; [26]", "result": 46.0, "unit": "%"}, {"measurement": "Average fresh weight", "setting": "[1]; [27]", "result": 2.7, "unit": "g"}, {"measurement": "Control efficacy", "setting": "[1]; [27]", "result": 59.4, "unit": "%"}, {"measurement": "Average fresh weight", "setting": "[1]; [28]", "result": 1.2, "unit": "g"}, {"measurement": "Control efficacy", "setting": "[1]; [28]", "result": 81.2, "unit": "%"}, {"measurement": "Effect of rain on control efficacy (in words)", "setting": "[1]; rain 0.5 h, 1.0 h and 3.0 h after application", "result": "obviously affected; also recorded: significantly reduced"}, {"measurement": "Effect of rain on control efficacy (in words)", "setting": "[1]; rain 6.0 h after application", "result": "relatively small impact; also recorded: almost unaffected"}, {"measurement": "GR50", "setting": "[2]", "result": 6.52, "unit": "g a.i./ha"}, {"measurement": "GR90", "setting": "[2]", "result": 12.92, "unit": "g a.i./ha"}, {"measurement": "GR50 (95% confidence interval)", "setting": "[3]", "result": "7.56 (6.00-9.07) g a.i./ha"}, {"measurement": "GR90 (95% confidence interval)", "setting": "[3]", "result": "35.74 (29.42-46.03) g a.i./ha"}]}
